Assays:
[1] = Concentration in blood and recovery rate in urine after oral administration (bioassay); type: in vivo, ddY male mice; settings: mouse, 40 mg/kg orally, mice, bioassay with S. lutea PC 11001, Example 26 quantified as its non-ester form (Example 25); for concentration at 0.25 h: read-out: Concentration in blood 0.25 hr later; for concentration at 0.5 h: read-out: Concentration in blood 0.5 hr later
Method: (3) Concentration in blood and recovery rate in urine
ddY male mice of 4 weeks old
40 mg/kg of the test compound was orally administered to each mouse, and the change with time of the concentration in blood and the recovery rate in urine for from 0 to 6 hours were measured. The quantitative analysis was conducted by a bioassay using S. lutea PC 11001 as the test microorganism. With respect to the compound of Example 26, the quantitative analysis was conducted in the form of its non-ester form i.e. as the compound of Example 25.

[2] = tested on: S. aureus 209P NIHJ JC1; assay: Antibacterial activities in vitro (agar plate dilution method); type: cell-based; settings: Staphylococcus aureus; Mueller Hinton agar, inoculum size 10⁶ CFU/mℓ, 37°C for 16 hours
Method: (1) Antibacterial activities in vitro The antibacterial activities were measured by the following agar plate dilution method. One platinum loopful of each test microorganism incubated overnight in Mueller Hinton broth, was inoculated to Mueller Hinton agar (inoculum size: 10⁶ CFU/mℓ). Such a culture medium contained a test compound in a predetermined concentration.

[3] = tested on: S. aureus 4970; assay: Protective effects against experimental infectious disease of mice; type: in vivo, Male mice (ddY); settings: Staphylococcus aureus, 4970, 96 h; oral administration one hour after inoculation of 5 x 10⁵ cells in 5% mucin; mortality four days later; eight mice per group; read-out: ED₅₀
Method: (2) Protective effects against experimental infectious disease of mice
Male mice (ddY) of 4 weeks old having body weights of 20±1 g were employed, and the test was conducted with eight mice per group. Microorganism used: S. aureus 4970
5 x 10⁵ cells of the pathogenic microorganism suspended in 5% mucin were […] injected to each mouse. One hour after the inoculation of the microorganism, the compound of the present invention was orally administered in the form of solutions having various concentrations. Four days later, the mortality of the mice was determined, and the ED₅₀ value was calculated.

## C=C(C)C1=C(C(=O)O)N2C(=O)[C@H]([C@@H](C)O)[C@H]2[C@H]1C [Example 25, Sodium (1S,5R,6S)-6-((1R)-1-hydroxyethyl)-2-(1-methylvinyl)-1-methylcarbapen-2-em-3-carboxylate]
[1]; blood
  concentration at 0.25 h: 4100 ng/mL
  concentration at 0.5 h: 2900 ng/mL
[1]; blood, read-out: Concentration in blood 1 hr later
  concentration at 1 h: 1600 ng/mL
[1]; urine, 0-6 hrs
  dose excreted at 6 h: 1.8%
[2]
  MIC: 0.05 µg/mL
[3]
  ED50: 0.34 mg/kg

## C=C(C)C1=C(C(=O)OCOC(=O)C(C)(C)C)N2C(=O)[C@H]([C@@H](C)O)[C@H]2[C@H]1C [Example 26, Pivaloyloxymethyl (1S,5R,6S)-6-((1R)-1-hydroxyethyl)-2-(1-methylvinyl)-1-methylcarbapen-2-em-3-carboxylate]
[1]; blood
  concentration at 0.25 h: 44900 ng/mL
  concentration at 0.5 h: 29100 ng/mL
[3]
  ED50: 0.36 mg/kg
